These are literature values, as cited in patent US12329849B2, “Method for dyeing keratinous material, comprising the use of an organosilicon compound, a dyeing compound, a sealing reagent, and a polymer-containing post-treatment agent” (Henkel AG & Co. KGaA, priority 2021, dated 2025).

Consider `CCN(Cc1cccc(S(=O)(=O)[O-])c1)c1ccc(C(=C2C=CC(=[N+](CC)Cc3cccc(S(=O)(=O)[O-])c3)C=C2)c2ccccc2S(=O)(=O)[O-])cc1.[Na+].[Na+]` [Acid Blue 9], for which the water solubility result (25° C.) is on record as “more than 20 wt %”.
`O=S(=O)([O-])c1ccc(N=Nc2c(O)ccc3ccccc23)cc1.[Na+]` [Acid Orange 7, sodium salt of 4-[(2-hydroxy-1-naphthyl)azo]benzenesulfonate]: the solubility in water entry (25° C.) is recorded as “more than 7 g/l”.
For the compound `Nc1cc(S(=O)(=O)[O-])cc2cc(S(=O)(=O)[O-])c(N=Nc3ccccc3)c(O)c12.[Na+].[Na+]` [Acid Red 33, disodium salt of 5-amino-4-hydroxy-3-(phenylazo)-naphthalene-2,7-disulfonate], the solubility in water (25° C.) was 2500 µg/mL.
As for `O=C([O-])c1c(Cl)c(Cl)c(Cl)c(Cl)c1-c1c2c(Br)cc(=O)c(Br)c-2oc2c(Br)c(O)cc(Br)c12.O=C([O-])c1c(Cl)c(Cl)c(Cl)c(Cl)c1-c1c2c(Br)cc(=O)c(Br)c-2oc2c(Br)c(O)cc(Br)c12.[Na+].[Na+]` [Acid Red 92, disodium salt of 3,4,5,6-tetrachloro-2-(1,4,5,8-tetrabromo-6-hydroxy-3-oxoxanthen-9-yl)benzoic acid], the solubility in water entry (25° C.) is on record as “greater than 10 g/l”.
Consider `O=C([O-])C1=NN(c2ccc(S(=O)(=O)[O-])cc2)C(=O)C1N=Nc1ccc(S(=O)(=O)[O-])cc1.[Na+].[Na+].[Na+]` (centres unmarked) [Acid Yellow 23, trisodium salt of 4,5-dihydro-5-oxo-1-(4-sulfophenyl)-4-((4-sulfophenyl)azo)-1H-pyrazole-3-carboxylic acid], for which the “solubility in water (in words)” value (at 25° C.) was “readily soluble”.
